Measured values reported in publication PMC6100082, “Pyridine-Ureas as Potential Anticancer Agents: Synthesis and In Vitro Biological Evaluation” (Molecules : A Journal of Synthetic Chemistry and Natural …, 2018).

Columns and labels:
CCRF-CEM = assay: NCI one-dose SRB assay (Leukemia); format: cell-based, human
How it was run: (§1)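 Percentage growth inhibition (GI%) was calculated from treated-cell growth measured by SRB protein assay following a 48 h exposure at 10^−5 M.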

HL-60(TB) = assay: NCI one-dose SRB assay (Leukemia); format: cell-based, human
How it was run: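 SRB assay, 48 h drug exposure, compound fixed at 10^−5 M; output expressed as % growth inhibition.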

K-562 = assay: NCI one-dose SRB assay (Leukemia); format: cell-based, human
How it was run: as §1

MOLT-4 = assay: NCI one-dose SRB assay (Leukemia); format: cell-based, human
How it was run: as §1

RPMI-8226 = assay: NCI one-dose SRB assay (Leukemia); format: cell-based, human
How it was run: as §1

SR = assay: NCI one-dose SRB assay (Leukemia); format: cell-based, human
How it was run: as §1

A549/ATCC = assay: NCI one-dose SRB assay (Non-Small Cell Lung Cancer); format: cell-based, human
How it was run: as §1

EKVX = assay: as above; format: cell-based, human
How it was run: as §1

HOP-62 = assay: as above; format: cell-based, human
How it was run: as §1

HOP-92 = assay: as above; format: cell-based, human
How it was run: as §1

NCI-H226 = assay: as above; format: cell-based, human
How it was run: as §1

NCI-H23 = assay: as above; format: cell-based, human
How it was run: as §1

NCI-H322M = assay: as above; format: cell-based, human
How it was run: as §1

NCI-H460 = assay: as above; format: cell-based, human
How it was run: as §1

NCI-H522 = assay: as above; format: cell-based, human
How it was run: as §1

LOX IMVI = assay: NCI one-dose SRB assay (Melanoma); format: cell-based, human
How it was run: as §1

M14 = assay: NCI one-dose SRB assay (Melanoma); format: cell-based, human
How it was run: as §1

MALME-3M = assay: NCI one-dose SRB assay (Melanoma); format: cell-based, human
How it was run: as §1

MDA-MB-435 = assay: NCI one-dose SRB assay (Melanoma); format: cell-based, human
How it was run: as §1

SK-MEL-28 = assay: NCI one-dose SRB assay (Melanoma); format: cell-based, human
How it was run: as §1

SK-MEL-2 = assay: NCI one-dose SRB assay (Melanoma); format: cell-based, human
How it was run: as §1

SK-MEL-5 = assay: NCI one-dose SRB assay (Melanoma); format: cell-based, human
How it was run: as §1

UACC-257 = assay: NCI one-dose SRB assay (Melanoma); format: cell-based, human
How it was run: as §1

UACC-62 = assay: NCI one-dose SRB assay (Melanoma); format: cell-based, human
How it was run: as §1

[1] = Homo sapiens, 10 μM, read-out: Percentage growth inhibition (GI%)

With `COc1cccc(NC(=O)Nc2ccc(-c3ccc(OC)c(OC)c3)nc2C)c1` [Compound 8m, 1-(6-(3,4-Dimethoxyphenyl)-2-methylpyridin-3-yl)-3-(3-methoxyphenyl) Urea] the “Growth Percent” value (CCRF-CEM; 1.00E-5 Molar) was 89.11%, the inhibition at 10 µM (CCRF-CEM; [1]) was 11% and the “Growth Percent” value (HL-60(TB); 1.00E-5 Molar) was 73.33%. For the same compound, the inhibition at 10 µM (HL-60(TB); [1]) was 27%, the inhibition at 10 µM (K-562; Homo sapiens, K562, K-562, 10 μM, read-out: Percentage growth inhibition (GI%)) was 22% and the “Growth Percent” value (K-562; K-562, 1.00E-5 Molar) was 78.49%. The inhibition at 10 µM (MOLT-4; Homo sapiens, MOLT-4, 10 μM, read-out: Percentage growth inhibition (GI%)) was 35%, the “Growth Percent” value (MOLT-4; MOLT-4, 1.00E-5 Molar) was 65.34% and the inhibition at 10 µM (RPMI-8226; Homo sapiens, RPMI-8226, 10 μM, read-out: Percentage growth inhibition (GI%)) was 26%. The “Growth Percent” value (RPMI-8226; RPMI-8226, 1.00E-5 Molar) was 74.18%, the “Growth Percent” value (SR; 1.00E-5 Molar) was 82.12% and the inhibition at 10 µM (SR; [1]) was 18%. The “Growth Percent” value (A549/ATCC; 1.00E-5 Molar) was 90.54%, the inhibition at 10 µM (A549/ATCC; [1]) was 10% and the “Growth Percent” value (EKVX; 1.00E-5 Molar) was 100.68%. For the same compound, the inhibition at 10 µM (EKVX; [1]) was under 10%, the “Growth Percent” value (HOP-62; HOP-62, 1.00E-5 Molar) was 94.75% and the inhibition at 10 µM (HOP-62; Homo sapiens, HOP-62, 10 μM, read-out: Percentage growth inhibition (GI%)) was under 10%. The “Growth Percent” value (HOP-92; HOP-92, 1.00E-5 Molar) was 81.00%, the inhibition at 10 µM (HOP-92; Homo sapiens, HOP-92, 10 μM, read-out: Percentage growth inhibition (GI%)) was 19% and the inhibition at 10 µM (NCI-H226; Homo sapiens, NCI-H226, 10 μM, read-out: Percentage growth inhibition (GI%)) was under 10%. The “Growth Percent” value (NCI-H226; NCI-H226, 1.00E-5 Molar) was 94.44%, the inhibition at 10 µM (NCI-H23; Homo sapiens, NCI-H23, 10 μM, read-out: Percentage growth inhibition (GI%)) was 10% and the “Growth Percent” value (NCI-H23; NCI-H23, 1.00E-5 Molar) was 90.97%. For the same compound, the “Growth Percent” value (NCI-H322M; 1.00E-5 Molar) was 95.22%, the inhibition at 10 µM (NCI-H322M; [1]) was under 10% and the inhibition at 10 µM (NCI-H460; Homo sapiens, NCI-H460, 10 μM, read-out: Percentage growth inhibition (GI%)) was under 10%. For the same compound, the “Growth Percent” value (NCI-H460; NCI-H460, 1.00E-5 Molar) was 102.12%, the inhibition at 10 µM (NCI-H522; Homo sapiens, NCI-H522, 10 μM, read-out: Percentage growth inhibition (GI%)) was 47% and the “Growth Percent” value (NCI-H522; NCI-H522, 1.00E-5 Molar) was 53.07%. The “Growth Percent” value (LOX IMVI; 1.00E-5 Molar) was 92.56%, the inhibition at 10 µM (LOX IMVI; [1]) was under 10% and the inhibition at 10 µM (M14; Homo sapiens, M14, 10 μM, read-out: Percentage growth inhibition (GI%)) was 10%. The “Growth Percent” value (M14; M14, 1.00E-5 Molar) was 90.93%, the “Growth Percent” value (MALME-3M; 1.00E-5 Molar) was 92.61% and the inhibition at 10 µM (MALME-3M; [1]) was under 10%. The inhibition at 10 µM (MDA-MB-435; Homo sapiens, MDA-MB-435, 10 μM, read-out: Percentage growth inhibition (GI%)) was under 10%, the “Growth Percent” value (MDA-MB-435; MDA-MB-435, 1.00E-5 Molar) was 100.45% and the inhibition at 10 µM (SK-MEL-28; Homo sapiens, SK-MEL-28, 10 μM, read-out: Percentage growth inhibition (GI%)) was under 10%. The “Growth Percent” value (SK-MEL-28; SK-MEL-28, 1.00E-5 Molar) was 99.69%, the inhibition at 10 µM (SK-MEL-2; Homo sapiens, SK-MEL-2, 10 μM, read-out: Percentage growth inhibition (GI%)) was 13% and the “Growth Percent” value (SK-MEL-2; SK-MEL-2, 1.00E-5 Molar) was 87.95%. For the same compound, the inhibition at 10 µM (SK-MEL-5; Homo sapiens, SK-MEL-5, 10 μM, read-out: Percentage growth inhibition (GI%)) was 16%, the “Growth Percent” value (SK-MEL-5; SK-MEL-5, 1.00E-5 Molar) was 84.32% and the inhibition at 10 µM (UACC-257; Homo sapiens, UACC-257, 10 μM, read-out: Percentage growth inhibition (GI%)) was under 10%. The “Growth Percent” value (UACC-257; UACC-257, 1.00E-5 Molar) was 97.19%, the inhibition at 10 µM (UACC-62; Homo sapiens, UACC-62, 10 μM, read-out: Percentage growth inhibition (GI%)) was under 10% and the “Growth Percent” value (UACC-62; UACC-62, 1.00E-5 Molar) was 93.89%. It also gave a melting point of 243 to 245 °C.
